Measurements reported in patent publication US5698547A, “Cephalosporin antibiotics” (Microcide Pharmaceuticals, Inc., priority 1995, dated 1997).
In brackets after ≈: the same amount, converted by molar mass. Structures can show the parent of a compound that is named as a salt.

Each compound was assayed on S. aureus Col (Meth^R) (lac^-) (assay: MIC by agar dilution, S. aureus Col (Meth^R) (lac^-)). Conditions: Staphylococcus aureus; agar dilution; S. aureus Col (Meth^R) (lac^-); read-out: MIC.
Assay type: cell-based
Procedure: The compounds of the invention were evaluated against several β-lactamresistant bacteria strains by determining the minimum inhibitory concentration (MIC, μg/ml) of each compound with respect to each strain. The MIC, the lowest concentration of antibiotic which inhibits growth of the test organism, was determined by the agar dilution method.
To determine the MIC for bacterial isolates, the test compound was incorporated in a series of two-fold dilutions into liquified Mueller-Hinton agar. Upon solidification, a number of different bacterial strains were spot inoculated with a replicating device onto the agar surface. […] The procedures used in these studies have been standardized by the National Committee for Clinical Laboratory Standards (NCCLS), as per the NCCLS publication entitled METHODS FOR DILUTION ANTIMICROBIAL SUSCEPTIBILITY TESTS (1991), which is incorporated herein by reference.
Aliquots of antimicrobial agents were prepared in phosphate buffered saline (PBS) at pH 7.2. Tween 20 or DMSO was used as a solubilizing vehicle as needed. Standard methods of vortexing, sonicating and gentle heat were used to facilitate solubilizing the test agent. Typically, the concentration of the stock solution was 10× that of the highest drug concentration tested. A 1.28 mg/mL stock solution was used with a subsequent highest working concentration of 128 μg/mL. Serial two-fold dilutions were done through ≤0.25 μg/mL. Each drug level was tested in duplicate. Two-fold drug dilutions were done in sterile 50 mL tubes with a final drug volume of 5 mL. Upon the addition of 45 mL of molten agar, a 10-fold dilution resulted. Two, 25 mL. plates were then poured into 15×150 mm square Petri plates with grids and allowed to harden.
A control plate with a reference drug, either cefotaxime, vancomycin or imipenem, was used as the positive growth control. Stock concentrations of reference antibiotics were prepared and frozen at -80° C. Upon preparation, the control plates were sealed and stored in the refrigerator for up to 1 week prior to use; however, imipenem control plates had to be prepared just prior to use. All test plates were used within 24 hours of preparation.
Satisfactory results were obtained where the inoculum contained about 10^4 colony forming units (cfu) ±0.5 logs. Starting with pure cultures of the test isolates on agar plates, a few isolated colonies were transferred to a tube of nutrient broth and allowed to grow 4-6 hours at 35°-36° C. to reach log-phase growth. Dropwise addition of the broth culture to PBS was done to match a 0.5 McFarland turbidity standard equal to 10^8 cfu/mL. This was further diluted ten-fold in PBS to reach a working inoculum concentration of 10^7 cfu/mL. When 1 μL of the working inoculum was applied to the agar surface a concentration of about 10^4 cfu per spot was obtained.
Disposable sterile 1 μL loops were used to inoculate test plates, with each isolate in a designated grid on the agar plate. An alternate method of inoculation involved the use of a replica plater, a device with 48 steel pins allowing the simultaneous inoculation of multiple isolates. After the spots had dried, the plates were incubated at 35°-36° C. for 16-20 hours. Endpoints were assessed as the minimum inhibitory concentration (MIC) of antimicrobial agent.
The novel agents of this invention are notable for their enhanced activity against S. aureus Col and Enterococci (E. faecium and E. faecalis). The S. aureus Col strain is a high-level PBP2a producer, whereas S. aureus Col 8A, its isogenic partner, lacks PBP2a. […] Thus, the compounds of the present invention are effective against PBP2a-producing bacteria.
Work on `O=C(Cc1ccccc1)N[C@@H]1C(=O)N2C(C(=O)O)=C(Sc3cccc4c3CCCC4)CS[C@H]12` [Cmpd 56, (7R)-7-[(Phenylacetyl)amino]-3-(5,6,7,8-tetrahydronaphthalen-1-ylthio)-3-cephem-4-carboxylic acid] yielded an MIC of 1 µg/mL (≈ 2.08 µM).
Compound `O=C(Cc1ccccc1)N[C@@H]1C(=O)N2C(C(=O)O)=C(Sc3ccc4ccccc4c3Br)CS[C@H]12` [Cmpd 57, (7R)-7-[(Phenylacetyl)amino]-3-(1-bromo-naphthalen-2-ylthio)-3-cephem-4-carboxylic acid] has an MIC of 0.5 µg/mL (≈ 0.9 µM).
Compound `O=C(Cc1ccccc1)N[C@@H]1C(=O)N2C(C(=O)O)=C(Sc3ccc(CSC4=NCCN4)cc3I)CS[C@H]12` [Cmpd 59, (7R)-7-[(Phenylacetyl)amino]-3-(4-(2-imidazolin-2-ylthiomethyl)-2-iodophenylthio)-3-cephem-4-carboxylic acid] has an MIC of 2 µg/mL (≈ 3 µM).
In the case of `N=C(N)NC(=N)SCc1ccc(SC2=C(C(=O)O)N3C(=O)[C@@H](NC(=O)Cc4ccccc4)[C@H]3SC2)c(I)c1` [Cmpd 60, (7R)-7-[(Phenylacetyl)amino]-3-(4-(N-amidino)isothiouroniummethyl-2-iodophenylthio)-3-cephem-4-carboxylate, inner salt], the MIC is reported as 0.5 µg/mL.
`N=C(NCCN1CCOCC1)SCc1ccc(SC2=C(C(=O)O)N3C(=O)[C@@H](NC(=O)Cc4ccccc4)[C@H]3SC2)c(I)c1` [Cmpd 61, (7R)-7-[(Phenylacetyl)amino]-3-(4-(N-morpholinoethyl)isothiouroniummethyl-2-iodophenylthio)-3-cephem-4-carboxylate, inner salt] gave an MIC of 4 µg/mL.
`CN(C)C(SCc1ccc(SC2=C(C(=O)[O-])N3C(=O)[C@@H](NC(=O)Cc4ccccc4)[C@H]3SC2)c(I)c1)=[N+](C)C` [Cmpd 62, (7R)-7-[(Phenylacetyl)amino]-3-(4-tetramethylisothiouroniummethyl-2-iodophenylthio)-3-cephem-4-carboxylate, inner salt] was tested, and the MIC was 4 µg/mL.
`N=C(N)SCc1ccc(SC2=C(C(=O)O)N3C(=O)[C@@H](NC(=O)Cc4ccccc4)[C@H]3SC2)cc1` [Cmpd 63, (7R)-7-[(Phenylacetyl)amino]-3-(4-isothiouroniummethylphenylthio)-3-cephem-4-carboxylate, inner salt] was tested, and the MIC was 4 µg/mL.
Compound `N=C(N)SCc1ccccc1SC1=C(C(=O)O)N2C(=O)[C@@H](NC(=O)Cc3ccccc3)[C@H]2SC1` [Cmpd 64, (7R)-7-[(Phenylacetyl)amino]-3-(2-isothiouroniummethylphenylthio)-3-cephem-4-carboxylate, inner salt] has an MIC of 0.5 µg/mL.
`O=C(Cc1ccccc1)N[C@@H]1C(=O)N2C(C(=O)O)=C(Sc3ccc(CSc4ncn[nH]4)cc3)CS[C@H]12` [Cmpd 65, (7R)-7-[(Phenylacetyl)amino]-3-(4-(1,2,4-triazol-5-ylthiomethyl)phenylthio)-3-cephem-4-carboxylic acid] showed an MIC of 8 µg/mL (≈ 14.8 µM).
`N#CCC(=O)N[C@@H]1C(=O)N2C(C(=O)O)=C(Sc3ccc(CSC(=N)N)cc3I)CS[C@H]12` [Cmpd 66, (7R)-7-[(Cyanoacetyl)amino]-3-(4-isothiouroniummethyl-2-iodophenylthio)-3-cephem-4-carboxylate, inner salt] gave an MIC of 2 µg/mL.
`O=C(Cc1ccccc1)N[C@@H]1C(=O)N2C(C(=O)O)=C(Sc3ccccc3CSc3ncn[nH]3)CS[C@H]12` [Cmpd 67, (7R)-7-[(Phenylacetyl)amino]-3-(2-(1,2,4-triazol-5-ylthiomethyl)phenylthio)-3-cephem-4-carboxylic acid] showed an MIC of 4 µg/mL (≈ 7.41 µM).
`O=C1CNC(SCc2ccccc2SC2=C(C(=O)O)N3C(=O)[C@@H](NC(=O)Cc4ccccc4)[C@H]3SC2)=N1` [Cmpd 68] was tested, and the MIC was 8 µg/mL (≈ 14.4 µM).
Compound `CN(C)C(SCc1ccccc1SC1=C(C(=O)[O-])N2C(=O)[C@@H](NC(=O)Cc3ccccc3)[C@H]2SC1)=[N+](C)C` [Cmpd 69, (7R)-7-[(Phenylacetyl)amino]-3-(2-tetramethylisothiouroniummethylphenylthio)-3-cephem-4-carboxylate, inner salt] has an MIC of 4 µg/mL.
Work on `O=C(Cc1ccccc1)N[C@@H]1C(=O)N2C(C(=O)O)=C(Sc3ccccc3CSc3ccncc3)CS[C@H]12` [Cmpd 70] yielded an MIC of 4 µg/mL (≈ 7.28 µM).
For `Cn1nnnc1SCc1ccccc1SC1=C(C(=O)O)N2C(=O)[C@@H](NC(=O)Cc3ccccc3)[C@H]2SC1` [Cmpd 71], the MIC was 16 µg/mL (≈ 28.8 µM).
Compound `O=C(Cc1ccccc1)N[C@@H]1C(=O)N2C(C(=O)O)=C(Sc3ccccc3CSC3=NCCN3)CS[C@H]12` [Cmpd 72] has an MIC of 4 µg/mL (≈ 7.4 µM).
With `C[n+]1ccc(SCc2ccccc2SC2=C(C(=O)[O-])N3C(=O)[C@@H](NC(=O)Cc4ccccc4)[C@H]3SC2)cc1` [Cmpd 73, (7R)-7-[(Phenylacetyl)amino]-3-(2-(N-methylpyridin-4-ium)thiomethyl)phenylthio)-3-cephem-4-carboxylate, inner salt] the MIC was 4 µg/mL.
`CCN=C(NCC)SCc1ccccc1SC1=C(C(=O)O)N2C(=O)[C@@H](NC(=O)Cc3ccccc3)[C@H]2SC1` [Cmpd 74, (7R)-7-[(Phenylacetyl)amino]-3-(2-N,N'-diethylisothiouroniummethylphenylthio)-3-cephem-4-carboxylate, inner salt] gave an MIC of 16 µg/mL.
`O=C(Cc1ccccc1)N[C@@H]1C(=O)N2C(C(=O)O)=C(Sc3ccccc3CSc3ncccn3)CS[C@H]12` [Cmpd 75] showed an MIC of 8 µg/mL (≈ 14.5 µM).
`CN=C(N)SCc1ccccc1SC1=C(C(=O)O)N2C(=O)[C@@H](NC(=O)Cc3ccccc3)[C@H]2SC1` [Cmpd 76, (7R)-7-[(Phenylacetyl)amino]-3-(2-N-methylisothiouroniummethylphenylthio)-3-cephem-4-carboxylate, inner salt] showed an MIC of 2 µg/mL.
`Cc1nnc(SCc2ccccc2SC2=C(C(=O)O)N3C(=O)[C@@H](NC(=O)Cc4ccccc4)[C@H]3SC2)s1` [Cmpd 77] gave an MIC of 8 µg/mL (≈ 14 µM).
With `CC(=O)NC(=N)SCc1ccccc1SC1=C(C(=O)O)N2C(=O)[C@@H](NC(=O)Cc3ccccc3)[C@H]2SC1` [Cmpd 78, (7R)-7-[(Phenylacetyl)amino]-3-(2-N-acetylamidinothiomethylphenylthio)-3-cephem-4-carboxylic acid] the MIC was 4 µg/mL (≈ 7.19 µM).
In the case of `NC(=NC1CC1)SCc1ccccc1SC1=C(C(=O)O)N2C(=O)[C@@H](NC(=O)Cc3ccccc3)[C@H]2SC1` [Cmpd 79, (7R)-7-[(Phenylacetyl)amino]-3-(2-N-cyclopropylisothiouroniummethylphenylthio)-3-cephem-4-carboxylate, inner salt], the MIC is reported as 4 µg/mL.
Compound `N=C(N)SCc1cccc(SC2=C(C(=O)O)N3C(=O)[C@@H](NC(=O)Cc4ccccc4)[C@H]3SC2)c1` [Cmpd 80, (7R)-7-[(Phenylacetyl)amino]-3-(3-isothiouroniummethylphenylthio)-3-cephem-4-carboxylate, inner salt] has an MIC of 2 µg/mL.
In the case of `C[n+]1cccc(SC2=C(C(=O)[O-])N3C(=O)[C@@H](NC(=O)Cc4ccccc4)[C@H]3SC2)c1-c1ccccc1` [Cmpd 82, (7R)-7-[(Phenylacetyl)amino]-3-(2-phenyl-N-methylpyridin-3-iumthio)-3-cephem-4-carboxylate], the MIC is reported as 4 µg/mL (≈ 7.73 µM).
For `O=C(Cc1ccccc1)N[C@@H]1C(=O)N2C(C(=O)[O-])=C(Sc3ccc[n+](Cc4ccccc4)c3-c3ccccc3)CS[C@H]12` [Cmpd 83, (7R)-7-[(Phenylacetyl)amino]-3-(2-phenyl-N-benzylpyridin-3-iumthio)-3-cephem-4-carboxylate], the MIC was 4 µg/mL (≈ 6.74 µM).
In the case of `O=C(Cc1ccc(Cl)cc1)N[C@@H]1C(=O)N2C(C(=O)O)=C(Sc3cccnc3-c3ccccc3)CS[C@H]12` [Cmpd 84, (7R)-7-[(4-Chlorophenylacetyl)amino]-3-(2-phenylpyridin-3-ylthio)-3-cephem-4-carboxylic acid], the MIC is reported as 2 µg/mL (≈ 3.72 µM).
`N#CCC(=O)N[C@@H]1C(=O)N2C(C(=O)O)=C(Sc3cccnc3-c3ccccc3)CS[C@H]12` [Cmpd 85, (7R)-7-[(Cyanoacetyl)amino]-3-(2-phenylpyridin-3-ylthio)-3-cephem-4-carboxylic acid] showed an MIC of 4 µg/mL (≈ 8.84 µM).
For `Nc1nc(/C(=N/OC2CCCC2)C(=O)N[C@@H]2C(=O)N3C(C(=O)O)=C(Sc4cccnc4-c4ccccc4)CS[C@H]23)cs1` [Cmpd 86, (7R)-7-[(Z)-2-(aminothiazol-4-yl)-2-(cyclopentyloxyimino)acetamido]-3-(2-phenylpyridin-3-ylthio)-3-cephem-4-carboxylic acid], the MIC was 8 µg/mL (≈ 12.8 µM).
